Results taken from patent publication US10351613B2, “Polypeptide for inhibition of tumor” (G-Bio Pharma Tech Co., Ltd., priority 2015, dated 2019).
≈ marks a conversion by molar mass, not a printed value. Where two headings read alike, the source gives them in different places. Residues, ends and D or L forms follow the SMILES beside them.

Legend:
[1] = system: Human liver cancer BEL7404 tumor model; assay type: in vivo; settings: for Tumor inhibitor rate (%): BEL7404, day 21, polypeptides 15 mg/kg sc 2 times per day 21 days, endostatin/endostar 50 mg/kg sc, CTX 30 mg/kg ip 7 days; for toxic reaction: BEL7404 model, same regimens
Method: In vitro cultured tumor cells in exponential phase and in good state were formulated to a 100 μl cell suspension containing 5×10^6 tumor cells. The suspension was subcutaneously inoculated to nude mice. Well-grown solid tumors were obtained 15 days later and cut into uniform pieces of about 3 mm under sterile condition. Each nude mouse was inoculated by one piece through a trocar. Mice were re-grouped according the tumor size 10-14 days after inoculation and animals having too large and too small tumor were excluded from the test. The average tumor volume for each group was basically identical. Test drugs were administered to each group according to the experimental protocol. The major axis (a) and minor axis (b) of the tumor were measured twice a week. Animals were sacrificed at the end of the test. The tumor was taken out, weighed and photos were taken. Tumor volume (TV)=½×a×b^2; Relative tumor volume (RTV)=Vt/Vo, wherein Vo is the tumor volume measured before grouping (one day before administration of the test drug), and Vt is the tumor volume measured at each time. Tumor inhibition rate (%)=(1−T/C)×100%, wherein T is the average tumor volume of the treatment group and C is the average tumor volume of the negative control group.
The amino acid sequence of recombination endostatin (“endostatin”) was set forth in SEQ ID NO: 1, and the amino acid sequence of the marketed drug Endostar (“endostar”) was set forth in SEQ ID NO: 10. Human liver cancer BEL7404 tumor model was constructed according to the method described in Example 10. The test contained 6 groups, with 6 animals in each group, except for the negative control group which contained 9 animals. The molar dose of the polypeptides was basically equal to the molar dose of endostatin. The results are shown in FIGS. 11a and 11b and the following Table.

[2] = system: Human Umbilical Vein Endothelial Cell (HUVEC); assay type: cell-based
Method: 20 cm umbilical cord adjacent to fetus was taken, cleaned by washing, ligated at both ends, placed into 150 ml preservation solutions for umbilical cord, and stored in a 4° C. refrigerator for digestion for 6 hours. The umbilical cord was inspected to remove the damaged portion. The umbilical vein was thoroughly cleaned by washing and then 10 ml collagenase solution was injected. Then the umbilical vein was transferred to a 37° C. incubator for digestion for 15 minutes. The umbilical cord was removed and the digested solution was recovered. The digested solution was washed by PBS and centrifuged. After centrifugation, the cells were culture by re-suspension.
(§1) Inhibition of cell growth was detected by a MTT method, which is based on the principle that succinate dehydrogenase in the mitochondria of the live cells could reduce the exogenous MTT (3-(4,5-dimethyl-2-thiazolyl)-2,5-diphenyl-tetrazolium bromide) to a […] Formazan which is a blue-violet crystal, and precipitates in the cells, while the death cells could not reduce MTT. DMSO could dissolve Formazan in the cells. Absorbance value of the solution was determined at 490/570 nm by microplate reader, which could indirectly indicate the amount of the live cells. The amount of the crystal from MTT is proportional to the amount of the cells within a certain range of cell number. The supernate from the HUVEC or tumor cells in exponential phase was removed and the cells were washed by PBS once. 1 ml 0.25% trypsin (4° C.) was added for digestion at 37° C. for 2 min. Then the supernate was added for neutralization and the cells were dispersed to form a suspension and the suspension was centrifuged at 1000 rpm for 3 min. The supernate was removed and 5 ml culture mediums were added for resuspension. Cells were inoculated in a 48-well plate by 500 ul/well at the concentration of 3×10^4/ml and then incubated under 5% CO2, 37° C. for 24 hours. The supernate was removed and a culture medium containing polypeptide (Zn^2+ in the culture medium was present at the concentration of 17.39 μmol/L) was added for further incubation for 48 hours. Supernate in each well was carefully removed. The well was gently washed by PBS once in an amount of 450 μl/well. 450 μl MTT culture mediums were added into each well for further cultivation for 4 hours. The supernate was carefully discarded. DMSO was added in an amount of 450 μl/well and then the plate was placed in a shaking bed for oscillation for 10 min in dark. 150 μl supernates were transferred to a 96-well ELISA plate and absorbance value of each well was detected at 490 nm and 570 nm by the microplate reader.

[3] = system: tumor cell HepG2; assay type: cell-based
Method: as §1

[4] = system: LS174T (Colon cancer); assay type: cell-based
Method: as §1
(§2) P2 (SEQ ID NO:2) and P2T2S18 (SEQ ID NO:6) were tested for their in vitro inhibition on SMMC7221, SPC-A-1, A549, LS174T, BEL7402, CK-MES-1 and BxPC-3 at a polypeptide concentration of 1 mg/ml according to the method described in Example 3. Results are shown in FIG. 9 and the following Table. […] All IC50 concentrations for P2T2S18 are less than 1/10 IC50 concentration of P2.

[5] = system: SPC-A-1 (lung carcinoma); assay type: cell-based
Method: as §1, §2

[6] = system: A549 (lung carcinoma); assay: MTT in vitro inhibition of A549; assay type: cell-based
Method: as §1, §2

[7] = system: CK-MES-1 (lung squamous cell carcinoma); assay: MTT in vitro inhibition of CK-MES-1; assay type: cell-based
Method: as §1, §2

[8] = system: BEL7402 (Liver cancer); assay: MTT in vitro inhibition of BEL7402; assay type: cell-based
Method: as §1, §2

[9] = system: SMMC7721 (Liver cancer); assay: MTT in vitro inhibition of SMMC7721; assay type: cell-based
Method: as §1, §2

[10] = system: BxPC-3 (pancreatic cancer); assay: MTT in vitro inhibition of BxPC-3; assay type: cell-based
Method: as §1, §2

[11] = system: lung cancer cell line SPC-A-1; assay: In vitro death of SPC-A-1 tumor cell observed under optical microscope; assay type: cell-based; settings: SPC-A-1, 2.5 mg/ml
Method: Polypeptides were tested for their effect in inducing cell death of lung cancer cell line SPC-A-1 at a polypeptide concentration of 2.5 mg/ml according to the method described in Example 3. Cells were observed under an optical microscope over 24 hours and photos were taken. P2 exerts its function 4 hours after being added into the culture medium. […] On the contrary, they extremely swelled. 4 hours later cells further swelled and began to disintegrate at 8 hours. […] The manner of P2T2S18 caused cell death is very surprising. Currently, it is unable to determine what manner this kind of cell death belongs to. No report is found in papers as well. However, this mode of cell death is obviously different from that caused by P2. Together with the results in Example 7, it can conclude that P2T2S18 not only has a biological activity obviously higher than P2, but also has a manner causing cell death obviously different from that of P2.

Molecule: O=P1(N(CCCl)CCCl)NCCCO1 (stereo not shown) [CTX, Cyclophosphamide, reference compound]
- Tumor inhibitor rate (%) [1]: 68.0%
- toxic reaction [1]: typical chemotherapeutic toxic side effect

Molecule: CC[C@H](C)[C@H](NC(=O)CNC(=O)[C@H](CCCNC(=N)N)NC(=O)[C@H](CCSC)NC(=O)CNC(=O)CNC(=O)[C@H](CO)NC(=O)[C@H](CC(C)C)NC(=O)[C@H](CO)NC(=O)[C@H](CO)NC(=O)[C@H](CC(N)=O)NC(=O)[C@H](CC(C)C)NC(=O)[C@H](C)NC(=O)[C@@H](NC(=O)[C@H](CC(C)C)NC(=O)[C@H](Cc1c[nH]cn1)NC(=O)[C@H](CC(C)C)NC(=O)[C@@H](NC(=O)[C@@H]1CCCN1C(=O)[C@H](CCC(N)=O)NC(=O)[C@H](Cc1ccccc1)NC(=O)[C@H](CC(=O)O)NC(=O)[C@H](CCCNC(=N)N)NC(=O)[C@H](Cc1c[nH]cn1)NC(=O)[C@@H](NC(=O)[C@H](Cc1c[nH]cn1)NC(C)=O)[C@@H](C)O)C(C)C)C(C)C)C(=O)N[C@@H](CCCNC(=N)N)C(=O)NCC(=O)N[C@@H](C)C(=O)N[C@@H](CC(=O)O)C(N)=O [Polypeptide P2T2S18] (Ac-HTHRDFQPVLHLVALNSSLSGGMRGIRGAD-NH2)
- IC50 (ug/ml) HUVEC [2]: 66.7 µg/mL (≈ 20.3 µM)
- Cell Survival (%), 1 mg/ml of polypeptide, HUVEC [2]: 2%
- Cell Survival (%) at a polypeptide concentration of 120 μM ([2]; 6 h, 120): 2%
- reduction of IC50 concentration as compared to that of P2 ([2]; HUVEC and HepG2): about 10 folds
- IC50 (ug/ml) HepG2 [3]: 76.9 µg/mL (≈ 23.4 µM)
- Cell Survival (%), 1 mg/ml of polypeptide, HepG2 [3]; 1: 4%
- IC50 [4]: 84.7 µg/mL (≈ 25.8 µM)
- Cell Survival (%) at a polypeptide concentration of 1 mg/ml ([4]; 1 mg/ml): 1%
- IC50 ([5]; SPC-A-1): 80.6 µg/mL (≈ 24.5 µM)
- Cell Survival (%) at a polypeptide concentration of 1 mg/ml ([5]; SPC-A-1, 1 mg/ml): 16%
- IC50 concentration as fraction of IC50 concentration of P2 ([5]; all seven tumor cell lines of Example 10): less than 1/10
- IC50 ([6]; A549): 72.5 µg/mL (≈ 22.1 µM)
- Cell Survival (%) at a polypeptide concentration of 1 mg/ml ([6]; A549, 1 mg/ml): 18%
- IC50 ([7]; CK-MES-1): 66.7 µg/mL (≈ 20.3 µM)
- Cell Survival (%) at a polypeptide concentration of 1 mg/ml ([7]; CK-MES-1, 1 mg/ml): 7%
- IC50 ([8]; BEL7402): 64.9 µg/mL (≈ 19.8 µM)
- Cell Survival (%) at a polypeptide concentration of 1 mg/ml ([8]; BEL7402, 1 mg/ml): 4%
- IC50 ([9]; SMMC7721): 76.9 µg/mL (≈ 23.4 µM)
- Cell Survival (%) at a polypeptide concentration of 1 mg/ml ([9]; SMMC7721, 1 mg/ml): 9%
- IC50 ([10]; BxPC-3): 78.1 µg/mL (≈ 23.8 µM)
- Cell Survival (%) at a polypeptide concentration of 1 mg/ml ([10]; BxPC-3, 1 mg/ml): 3%
- time after being added into the culture medium at which the polypeptide acts on the cells [11]: 2 h
- state of cells at 24 hours ([11]; 24 hours): only cell debrises left
- manner of induced cell death ([11]; optical microscope): cells did not shrink. On the contrary, they extremely swelled
- Tumor inhibitor rate (%) [1]: 76.7%
- toxic reaction [1]: did not produce toxic reaction

Molecule: CC[C@H](C)[C@H](NC(=O)CNC(=O)[C@H](CCCNC(=N)N)NC(=O)[C@H](CCSC)NC(=O)CNC(=O)CNC(=O)[C@H](CO)NC(=O)[C@H](CC(C)C)NC(=O)[C@@H]1CCCN1C(=O)[C@H](CO)NC(=O)[C@H](CC(N)=O)NC(=O)[C@H](CC(C)C)NC(=O)[C@H](C)NC(=O)[C@@H](NC(=O)[C@H](CC(C)C)NC(=O)[C@H](Cc1c[nH]cn1)NC(=O)[C@H](CC(C)C)NC(=O)[C@@H](NC(=O)[C@@H]1CCCN1C(=O)[C@H](CCC(N)=O)NC(=O)[C@H](Cc1ccccc1)NC(=O)[C@H](CC(=O)O)NC(=O)[C@H](CCCNC(=N)N)NC(=O)[C@H](Cc1c[nH]cn1)NC(=O)[C@@H](NC(=O)[C@H](Cc1c[nH]cn1)NC(C)=O)[C@@H](C)O)C(C)C)C(C)C)C(=O)N[C@@H](CCCNC(=N)N)C(=O)NCC(=O)N[C@@H](C)C(=O)N[C@@H](CC(=O)O)C(N)=O [Polypeptide P2T2] (Ac-HTHRDFQPVLHLVALNSPLSGGMRGIRGAD-NH2)
- IC50 (ug/ml) HUVEC [2]: 1506.1 µg/mL (≈ 457 µM)
- Cell Survival (%), 1 mg/ml of polypeptide, HUVEC [2]: 46%
- biological activity compared with P2 ([2]; inhibition of HUVEC and HepG2): lower biological activity than P2
- IC50 (ug/ml) HepG2 [3]: 2169.6 µg/mL (≈ 659 µM)
- Cell Survival (%), 1 mg/ml of polypeptide, HepG2 [3]; 1: 55%

B1: endostatin: Recombinant human endostatin, SEQ ID NO: 1, commercially available (protein, listed as Homo sapiens)
chain: HSHRDFQPVLHLVALNSPLSGGMRGIRGADFQCFQQARAVGLAGTFRAFLSSRLQDLYSIVRRADRAAVPIVNLKDELLFPSWEALFSGSEGPLKPGARIFSFDGKDVLRHPTWPQKSVWHGSDPNGRRLTESYCETWRTEAPSATGQASSLLGGRLLGQSAASCHHAYIVLCIENSFMTASK
- Cell Survival (%), 1 mg/ml of polypeptide, HUVEC [2]: 70%
- IC50 (ug/ml) HepG2 [3]: 2245.4 µg/mL
- Cell Survival (%), 1 mg/ml of polypeptide, HepG2 ([3]; 1 mg/ml): 64%
- Tumor inhibitor rate (%) [1]: 41.2%

B2: endostar: marketed recombinant human endostatin drug, SEQ ID NO: 10 (protein)
chain: MGGSHHHHHHSHRDFQPVLHLVALNAPLSGGMRGIRGADFQCFQQARAVGLAGTFRAFLSSRLQDLYSIVRRADRAAVPIVNLKDELLFPSWEALFSGSEGPLKPGARIFSFDGKDVLRHPTWPQKSVWHGSDPNGRRLTESYCETWRTEAPSATGQASSLLGGRLLGQSAASCHHAYIVLCIENSFMTASK
modifications: Recombinant human endostatin drug, endostar
- Cell Survival (%), 1 mg/ml of polypeptide, HUVEC [2]: 82%
- Cell Survival (%), 1 mg/ml of polypeptide, HepG2 ([3]; 1 mg/ml): 91%
- Tumor inhibitor rate (%) [1]: 28.5%
